The test system of test [1] is nitric-oxide synthase (NOS). In words: NOS activity of cerebral cortex, biochemical kit, EAE rats. The note with it: positive control drug, dose not given. Format: in vivo. The protocol: (§1) Preparation of rat model and administration: experimental autoimmune encephalomyelitis (EAE) model is an important tool for studying various human demyelinating diseases of nervous system. In the example, the preparation of EAE rat model was performed by multipoint immunizing female Lewis rats subcutaneously at tail root with a homogenate of spinal cord and cerebral gray matter of Guinea pig as well as complete Freund's adjuvant after emulsification. They were intragastrically administered with Epimedium flavanoids for 3 weeks.
Experimental objective: nitric-oxide synthase (NOS) catalyzes the generation of nitric oxide (NO). During inflammatory reaction, the activity of induced NOS increases, excess NO are generated and oxygen radicals are generated via oxidation, which may result in damages in nerve cells and myelin sheath. In this experiment, NOS activity and NO content were measured using biochemical kits in cerebral cortex of EAE rat model, and the effects of Epimedium flavanoids on changes thereof were observed. […]

Test [2] deals with Nerve growth factors (NGF). In words: NGF of spinal cord lumbar intumescentia by immunohistochemical method, EAE rats. Format: in vivo. The note with it: positive control drug, dose not given. How it is done: as §1
Experimental objective: neurotrophic factors are important substances for constituting nerve regeneration microenvironment. Nerve growth factors (NGF) are important neurotrophic factors, can promote the regeneration and plerosis of nerve cells and myelin sheath. In this experiment, NGF content of spinal cord lumbar intumescentia in EAE rat model was measured by immunohistochemical method, and the effects of Epimedium flavanoids on the content was observed.
Experimental method: the rats were anesthetized with 10% chloral hydrate, fixed by perfusion of 4% paraformaldehyde, spinal cord tissues were taken for frozen section. Incubated with NGF primary antibody, added with corresponding secondary antibody and third antibody, DAB colorated, observed under microscope, and pictures were analyzed using Image Pro plus5.0 software.

`CC(=O)OCC(=O)[C@@]1(O)CC[C@H]2[C@@H]3CCC4=CC(=O)C=C[C@]4(C)[C@H]3C(=O)C[C@@]21C` [prednisone acetate] showed an NOS activity in test [1] of 2.44 ± 0.08 U/mg protein. Also, the “NGF positive cell Accumulative optical density” value in test [2] is 11.25 ± 1.67 ×10^5.

The values are drawn from patent publication US9050353B2, “Use of icariin and epimedium flavonoids containing icariin to treat diseases associated with myelin sheath lesion” (Xuanwu Hospital of Capital Medical University, priority 2010, dated 2015).
